These results are taken from US20250367109A1, “DEVICES, SYSTEMS, AND METHODS FOR IMPROVED BONE REMODELING” (UNIVERSITY OF UTAH RESEARCH FOUNDATION, priority 2024, published 2025).

Structures are written as SMILES.

The series is described as follows: local elution of estradiol from implant in left proximal humerus; estradiol concentration in tendon tissue samples by mass spectroscopy. The format is in vivo, wild-type rats. Conditions: one week after implantation into left proximal humerus; compared with right rotator cuff, left and right Achilles tendon; 200 micrograms estradiol load.

Source text: Drug-eluting implants analogous to drug-eluting implant 200 were comprised of polycaprolactone and estradiol. The drug-eluting implants were in the form of a cylinder 1 mm in diameter and 5 mm long, and loaded with 200 micrograms of estradiol. The drug-eluting implants were implanted into the left proximal humeri of wild-type rats. One week following implantation, the animals were euthanized and tendon tissue samples were collected at the following sites: left rotator cuff (target site), right rotator cuff, left Achilles tendon, and right Achilles tendon. Mass spectroscopy was used to determine the estradiol concentration in the tissue samples, and the results are provided in an estradiol concentration chart 300.

On to `C[C@]12CC[C@@H]3c4ccc(O)cc4CC[C@H]3[C@@H]1CC[C@@H]2O` [estradiol], for which the “estradiol concentration in left rotator cuff tissue (target site) relative to remote tendon sites” value is on record as “significantly higher local estradiol concentrations at the target region relative to other regions”.
